Reference: patent US7713937B2, “Synthetic peptide amides and dimeric forms thereof” (Cara Therapeutics, Inc., priority 2006, dated 2010)
Square brackets hold non-standard residues; d marks the D form. Peptide text beside a SMILES is read from it. * marks the point of attachment. Homopiperazine(4-amidino) = N=C(N)N1CCCN(*)CC1; dAgb = N=C(N)NCC[C@@H](N)C(=O)O; Homopiperazinyl = C1CNCCN(*)C1; dAgp = N=C(N)NC[C@@H](N)C(=O)O; dNle = CCCC[C@@H](N)C(=O)O; dOrn = NCCC[C@@H](N)C(=O)O; dDab = NCC[C@@H](N)C(=O)O; Morpholide = C1CN(*)CCO1; Inp = O=C(O)C1CCNCC1

Tests used:
[1] = biological target: T1, mouse kappa opioid receptor (mKOR) (Mus musculus, UniProt P33534); test: cell-based; conditions: for Emax: read-out: mKOR Efficacy(%)
T1 construct: Stimulation of Endogenous Mouse Kappa-Opioid Receptor in R1.G1 Cells; host or cells: R1.G1 mouse thymoma cells

[2] = biological target: T2, human kappa opioid receptor (hKOR) (Homo sapiens, UniProt P41145); test: cell-based; conditions: for Emax: HEK293, read-out: hKOR Efficacy(%)
T2 construct: expressed in transfected cells; host or cells: HEK-293 cells, transient transfection with Fugene6
T2 sequence (P41145 whole entry): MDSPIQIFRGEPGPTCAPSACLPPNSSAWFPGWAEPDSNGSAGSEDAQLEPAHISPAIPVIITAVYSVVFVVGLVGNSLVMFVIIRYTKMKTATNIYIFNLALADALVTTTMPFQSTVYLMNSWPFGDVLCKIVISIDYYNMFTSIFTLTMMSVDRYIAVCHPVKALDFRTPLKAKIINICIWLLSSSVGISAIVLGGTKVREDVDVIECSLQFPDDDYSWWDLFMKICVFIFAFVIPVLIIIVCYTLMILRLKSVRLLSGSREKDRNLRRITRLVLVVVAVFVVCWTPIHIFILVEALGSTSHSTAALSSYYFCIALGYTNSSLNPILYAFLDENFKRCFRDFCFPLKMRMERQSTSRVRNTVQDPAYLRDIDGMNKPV

T1 sequence (P33534 whole entry): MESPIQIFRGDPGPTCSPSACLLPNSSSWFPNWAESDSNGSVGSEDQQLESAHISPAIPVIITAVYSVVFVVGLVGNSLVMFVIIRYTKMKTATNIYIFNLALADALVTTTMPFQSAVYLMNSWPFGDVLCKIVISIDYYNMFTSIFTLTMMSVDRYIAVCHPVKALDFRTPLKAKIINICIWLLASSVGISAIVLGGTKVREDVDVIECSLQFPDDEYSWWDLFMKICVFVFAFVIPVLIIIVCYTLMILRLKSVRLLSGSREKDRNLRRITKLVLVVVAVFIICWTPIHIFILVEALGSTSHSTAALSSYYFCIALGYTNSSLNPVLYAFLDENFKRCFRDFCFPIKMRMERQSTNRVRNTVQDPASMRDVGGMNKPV

Compound | EC50 [1] | Emax [1] | EC50 [2] | Emax [2]
CC(C)C[C@@H](NC(=O)[C@@H](Cc1ccccc1)NC(=O)[C@H](N)Cc1ccccc1)C(=O)N[C@H](CNC(=N)N)C(=O)N1CCCNCC1 [Compound (20), D-Phe-D-Phe-D-Leu-(β-amidino)D-Dap-[homopiperazine amide]] (H-[dF][dF][dL][dAgp]-Homopiperazinyl) | 491 pM | 102% | 390 pM | 84%
CCCC[C@@H](NC(=O)[C@@H](Cc1ccccc1)NC(=O)[C@H](N)Cc1ccccc1)C(=O)N[C@H](CNC(=N)N)C(=O)N1CCCNCC1 [Compound (21), D-Phe-D-Phe-D-Nle-(β-amidino)D-Dap-[homopiperazine amide]] (H-[dF][dF][dNle][dAgp]-Homopiperazinyl) | 732 pM | 103% | 1060 pM | 99%
CC(C)C[C@@H](NC(=O)[C@@H](Cc1ccccc1)NC(=O)[C@H](N)Cc1ccccc1)C(=O)N[C@H](CCN)C(=O)N1CCCN(C(=N)N)CC1 [Compound (22), D-Phe-D-Phe-D-Leu-D-Dbu-[4-amidinohomopiperazine amide]] (H-[dF][dF][dL][dDab]-{Homopiperazine(4-amidino)}) | 95 pM | 103% | 180 pM | 86%
CC(C)C[C@@H](NC(=O)[C@@H](Cc1ccccc1)NC(=O)[C@H](N)Cc1ccccc1)C(=O)N[C@H](CCNC(=N)N)C(=O)N1CCCN(C(=N)N)CC1 [Compound (23), D-Phe-D-Phe-D-Leu-D-Nar-[4-amidinohomopiperazine amide]] (H-[dF][dF][dL][dAgb]-{Homopiperazine(4-amidino)}) | 91 pM | 104% | 170 pM | 84%
CC(C)C[C@@H](NC(=O)[C@@H](Cc1ccccc1)NC(=O)[C@H](N)Cc1ccccc1)C(=O)N[C@H](CCCNC(=N)N)C(=O)N1CCCN(C(=N)N)CC1 [Compound (24), D-Phe-D-Phe-D-Leu-D-Arg-[4-amidinohomopiperazine amide]] (H-[dF][dF][dL][dR]-{Homopiperazine(4-amidino)}) | 36 pM | 97% | 90 pM | 93%
CC(C)C[C@@H](NC(=O)[C@@H](Cc1ccccc1)NC(=O)[C@H](N)Cc1ccccc1)C(=O)N[C@H](CCCCN)C(=O)N1CCC2(CCNC2=O)CC1 [Compound (25), D-Phe-D-Phe-D-Leu-D-Lys-[2,8-diazaspiro[4,5]decan-1-one amide]] | 31.4 pM | 82% | 2.7 pM | 101%
CC(C)C[C@@H](NC(=O)[C@@H](Cc1ccccc1)NC(=O)[C@H](N)Cc1ccccc1)C(=O)N[C@H](CCCCN)C(=O)N1CCC2(CCN(C)C2=O)CC1 [Compound (26), D-Phe-D-Phe-D-Leu-D-Lys-[2-methyl-2,8-diazaspiro[4,5]decan-1-one amide]] | 19.4 pM | 86% | 8.3 pM | 99%
CC(C)C[C@@H](NC(=O)[C@@H](Cc1ccccc1)NC(=O)[C@H](N)Cc1ccccc1)C(=O)N[C@H](CCCCN)C(=O)N1CCC2(CC1)NC(=O)NC2=O [Compound (27), D-Phe-D-Phe-D-Leu-D-Lys-[1,3,8-triazaspiro[4,5]decane-2,4-dione amide]] | 5.6 pM | 87% | < 1 pM | 88%
CC(C)C[C@@H](NC(=O)[C@@H](Cc1ccccc1)NC(=O)[C@H](N)Cc1ccccc1)C(=O)N[C@H](CCCCN)C(=O)N1CCC(n2c(=O)[nH]c3cc(Cl)ccc32)CC1 [Compound (28), D-Phe-D-Phe-D-Leu-D-Lys-[5-chloro-1-(piperidin-4-yl)-1H-benzo[d]imidazol-2(3)H-one amide]] | – | 83% | – | 100%
CC(C)C[C@@H](NC(=O)[C@@H](Cc1ccccc1)NC(=O)[C@H](N)Cc1ccccc1)C(=O)N[C@H](CCCCN)C(=O)N1CCC(C(=O)N2CCOCC2)CC1 [Compound (29), D-Phe-D-Phe-D-Leu-D-Lys-[morpholino(piperidin-4-yl)methanone amide]] (H-[dF][dF][dL][dK][Inp]-Morpholide) | 46.4 pM | 86% | 14.5 pM | 100%
CC(C)C[C@@H](NC(=O)[C@@H](Cc1ccccc1)NC(=O)[C@H](N)Cc1ccccc1)C(=O)N[C@H](CCCCN)C(=O)N1CCC(n2cc(-c3ccccc3)[nH]c2=O)CC1 [Compound (30)] | 129 pM | 88% | – | 95%
Cc1nnc(C)n1C1CCN(C(=O)[C@@H](CCCCN)NC(=O)[C@@H](CC(C)C)NC(=O)[C@@H](Cc2ccccc2)NC(=O)[C@H](N)Cc2ccccc2)CC1 [Compound (31), D-Phe-D-Phe-D-Leu-D-Lys-[4-(3,5-dimethyl-4H-1,2,4-triazol-4-yl)piperidine amide]] | 21.6 pM | 86% | 4.2 pM | 95%
CC(C)C[C@@H](NC(=O)[C@@H](Cc1ccccc1)NC(=O)[C@H](N)Cc1ccccc1)C(=O)N[C@H](CCCCN)C(=O)N1CCC2(CC1)C(=O)NCN2c1ccccc1 [Compound (33), D-Phe-D-Phe-D-Leu-D-Lys-[1-phenyl-1,3,8-triazaspiro[4.5]decan-4-one amide]] | – | 86% | – | 101%
CC(C)C[C@@H](NC(=O)[C@@H](Cc1ccccc1)NC(=O)[C@H](N)Cc1ccccc1)C(=O)N[C@H](CCCCN)C(=O)NCc1cn2ccccc2n1 [Compound (34), D-Phe-D-Phe-D-Leu-D-Lys-[imidazo[1,2-a]pyridine-2-ylmethyl amide]] | 354 pM | 90% | 20.8 pM | 101%
Cc1cnc(CNC(=O)[C@@H](CCCCN)NC(=O)[C@@H](CC(C)C)NC(=O)[C@@H](Cc2ccccc2)NC(=O)[C@H](N)Cc2ccccc2)cn1 [Compound (35), D-Phe-D-Phe-D-Leu-D-Lys-[(5-methylpyrazin-2-yl)methyl amide]] | 35.9 pM | – | 6.4 pM | –
CC(C)C[C@@H](NC(=O)[C@@H](Cc1ccccc1)NC(=O)[C@H](N)Cc1ccccc1)C(=O)N[C@H](CCCCN)C(=O)N1CCC(n2c(=O)[nH]c3ccccc32)CC1 [Compound (36), D-Phe-D-Phe-D-Leu-D-Lys-[1-(piperidin-4-yl)-1H-benzo[d]imidazol-2(3H)-one amide]] | – | 87% | – | 100%
CC(C)C[C@@H](NC(=O)[C@@H](Cc1ccccc1)NC(=O)[C@H](N)Cc1ccccc1)C(=O)N[C@H](CCCCN)C(=O)N1CCc2[nH]ncc2C1 [Compound (37), D-Phe-D-Phe-D-Leu-D-Lys-[4,5,6,7-tetrahydro-1H-pyrazolo[4,3-c]pyridine amide]] | 23.4 pM | 90% | 5.2 pM | 100%
CC(C)C[C@@H](NC(=O)[C@@H](Cc1ccccc1)NC(=O)[C@H](N)Cc1ccccc1)C(=O)N[C@H](CCCN)C(=O)NCCN1CCN(CC(=O)O)CC1 [Compound (38), D-Phe-D-Phe-D-Leu-D-Orn-[4-(2-aminoethyl)-1-carboxymethyl-piperazine]-OH] | 403 pM | 98% | – | 102%
CC(C)C[C@@H](NC(=O)[C@@H](Cc1ccccc1)NC(=O)[C@H](N)Cc1ccccc1)C(=O)N[C@H](CCCN)C(=O)N1CCC(CC(=O)O)CC1 [Compound (39), D-Phe-D-Phe-D-Leu-D-Orn-[4-carboxymethyl-piperidine]-OH] | 80 pM | 97% | 120 pM | 99%
CC(C)C[C@@H](NC(=O)[C@@H](Cc1ccccc1)NC(=O)[C@H](N)Cc1ccccc1)C(=O)N[C@H](CCCN)C(=O)N1CCC(N)(C(=O)O)CC1 [Compound (43), D-Phe-D-Phe-D-Leu-D-Orn-[ω(4-aminopiperidine-4-carboxylic acid)]-OH] | 41 pM | 100% | 140 pM | 107%
CC(C)C[C@@H](NC(=O)[C@@H](Cc1ccccc1)NC(=O)[C@H](N)Cc1ccccc1)C(=O)N[C@H](CCCN)C(=O)N1CCC(CC(N)C(=O)O)CC1 (stereo partly drawn) [Compound (44), D-Phe-D-Phe-D-Leu-D-Orn-[ω(D/L-2-amino-3-(4-N-piperidinyl)propionic acid)]-OH] | 28 pM | 102% | 130 pM | 104%
CC(C)C[C@@H](NC(=O)[C@@H](Cc1ccccc1)NC(=O)[C@H](N)Cc1ccccc1)C(=O)N[C@H](CCCN)C(=O)N1CCNC(C(=O)O)C1 (stereo partly drawn) [Compound (45), D-Phe-D-Phe-D-Leu-D-Orn-[ω(D/L-4-piperazine-2-carboxylic acid)]-OH] | 197 pM | 102% | 150 pM | 93%
CC(C)C[C@@H](NC(=O)[C@@H](Cc1ccccc1)NC(=O)[C@H](N)Cc1ccccc1)C(=O)N[C@H](CCCN)C(=O)N1CCC(C(=O)O)CC1 [Compound (46), D-Phe-D-Phe-D-Leu-D-Orn-[Isonipecotic acid]-OH] (H-[dF][dF][dL][dOrn][Inp]-OH) | 88 pM | 92% | 280 pM | 128%
CC(C)C[C@@H](NC(=O)[C@@H](Cc1ccccc1)NC(=O)[C@H](N)Cc1ccccc1)C(=O)N[C@H](CCCN)C(=O)N1CCC(N2CCC[C@H]2C(=O)O)CC1 [Compound (47), D-Phe-D-Phe-D-Leu-D-Orn-[N-(4-piperidinyl)-L-proline]-OH] | 85 pM | 99% | 170 pM | 92%
CC(C)C[C@@H](NC(=O)[C@@H](Cc1ccccc1)NC(=O)[C@H](N)Cc1ccccc1)C(=O)N[C@H](CCCN)C(=O)N1CCC(CCCC(=O)O)CC1 [Compound (48), D-Phe-D-Phe-D-Leu-D-Orn-[4-(4-piperidinyl)-butanoic acid]-OH] | 92 pM | 100% | 260 pM | 97%
CC(C)C[C@@H](NC(=O)[C@@H](Cc1ccccc1)NC(=O)[C@H](N)Cc1ccccc1)C(=O)N[C@H](CCCN)C(=O)NCCN1CCN(CC(N)=O)CC1 [Compound (49), D-Phe-D-Phe-D-Leu-D-Orn-[4-(2-aminoethyl)-1-carboxymethyl-piperazine]-NH2] | 115 pM | 96% | 220 pM | 96%
